Literature values as cited in paper PMC3178464 (Bioorganic & medicinal chemistry, 2009).

Tested on: ER

For 17α-ethynylestradiol [EE2], which “affinity for ER relative to E2” value is on record?
Its value is “nearly three-fold higher affinity”.
